# Measured values reported in patent US6355799B1, “Substituted benzene compounds, process for their preparation, and herbicidal and defoliant compositions containing them” (ISK Americas Incorporated, priority 1997, dated 2002).
# Experiments:
# Type in all cases: in vivo
# [1] = tested on: lambsquarters (Chenopodium album, CHEAL); assay: Post-emerge test, greenhouse herbicide activity screening; details: post-emerge, 14 days after application, rating scale 0-100
# Summary of the method: (§1)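 Fourteen days after spraying, crop and weed injury was graded visually from 0, no effect, to 100, every plant dead. Test substances were dissolved in acetone and applied at 15–1000 g ai/ha with a flat-fan nozzle. Application was either pre-emergence, one day after sowing, or post-emergence at the 2–3 leaf stage.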
# [2] = tested on: velvetleaf (Abutilon theophrasti, ABUTH); assay: as above; details: post-emerge, 14 days after application, rating scale 0-100
# Summary of the method: as §1
# [3] = tested on: large crabgrass (Digitaria sanguinalis, DIGSA); assay: as above; details: post-emerge, 14 days after application, rating scale 0-100
# Summary of the method: as §1
# [4] = tested on: ivyleaf morningglory (Ipomoea hederacea, IPOHE); assay: as above; details: post-emerge, 14 days after application, rating scale 0-100
# Summary of the method: as §1
# [5] = tested on: redroot pigweed (Amaranthus retroflexus, AMARE); assay: as above; details: post-emerge, 14 days after application
# Summary of the method: as §1
# [6] = tested on: johnsongrass (Sorghum halepense, SORHA); assay: as above; details: post-emerge, 14 days after application, rating scale 0-100
# Summary of the method: as §1
# [7] = tested on: sicklepod (Cassia obtusifolia, CASOB); assay: as above; details: post-emerge, 14 days after application, rating scale 0-100
# Summary of the method: as §1
# [8] = tested on: green foxtail (Setaria viridis, SETVI); assay: as above; details: post-emerge, 14 days after application, rating scale 0-100
# Summary of the method: as §1
# [9] = tested on: barnyardgrass (Echinochloa crus-galli, ECHCG); assay: as above; details: post-emerge, 14 days after application, rating scale 0-100
# Summary of the method: as §1
# [10] = tested on: lambsquarters (Chenopodium album, CHEAL); assay: Pre-emerge test, greenhouse herbicide activity screening
# Summary of the method: (§2)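 Compounds in acetone were track-sprayed at 15–1000 g ai/ha: pre-emergence onto soil sown the previous day, then top-watered to incorporate and later bottom-watered; post-emergence onto 2–3 leaf plants with 0.25% v/v surfactant, bottom-watered only. Ratings on a 0–100 phytotoxicity scale were taken at day 14.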
# [11] = tested on: velvetleaf (Abutilon theophrasti, ABUTH); assay: as above
# Summary of the method: as §2
# [12] = tested on: large crabgrass (Digitaria sanguinalis, DIGSA); assay: as above
# Summary of the method: as §2
# [13] = tested on: ivyleaf morningglory (Ipomoea hederacea, IPOHE); assay: as above
# Summary of the method: as §2
# [14] = tested on: johnsongrass (Sorghum halepense, SORHA); assay: as above
# Summary of the method: as §2
# [15] = tested on: sicklepod (Cassia obtusifolia, CASOB); assay: as above
# Summary of the method: as §2
# [16] = tested on: green foxtail (Setaria viridis, SETVI); assay: as above
# Summary of the method: as §2
# [17] = tested on: barnyardgrass (Echinochloa crus-galli, ECHCG); assay: as above
# Summary of the method: as §2
# [18] = tested on: redroot pigweed (Amaranthus retroflexus, AMARE); assay: as above
# Summary of the method: (§3)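 Compounds in acetone were track-sprayed at 15-1000 g ai/ha (187 l/ha) on sandy loam pots: pre-emerge one day after seeding, post-emerge at 2-3 leaf stage with 0.25% v/v non-ionic surfactant. Phytotoxicity was rated 14 days later on a 0 (no damage) to 100 (complete death) scale.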
# [19] = tested on: field corn (Zea mays L., var. Dekalb 535, CORN); assay: Post-emerge test, crop safety; details: post-emerge, 14 days after application, rating scale 0-100
# Summary of the method: (§4)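 Rating: 0–100 visual injury, 14 DAA. Application: acetone, 187 l/ha, 15–1000 g ai/ha, flat-fan track sprayer with nozzle 40–45 cm above soil or canopy. Post-emerge runs used 0.25% v/v surfactant on 2–3 leaf plants.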
# [20] = tested on: upland rice (Oryza sp., var. Tebonnet, RICE); assay: Post-emerge test, crop safety; details: post-emerge, 14 days after application, rating scale 0-100
# Summary of the method: as §4
# [21] = tested on: field corn (Zea mays L., var. Dekalb 535, CORN); assay: Pre-emerge test, crop safety
# Summary of the method: as §3
# [22] = tested on: upland rice (Oryza sp., var. Tebonnet, RICE); assay: Pre-emerge test, crop safety
# Summary of the method: as §3
# [23] = 63 g ai/ha, rating scale 0-100 (0 no damage, 100 complete death)
# [24] = 250 g ai/ha, rating scale 0-100
# [25] = pre-emerge, rate 63 g ai/ha, phytotoxicity rating 0-100 at 14 days after application
# [26] = pre-emerge, rate 250 g ai/ha, phytotoxicity rating 0-100 at 14 days after application
# [27] = crop damage, pre-emerge, rate 63 g ai/ha, phytotoxicity rating 0-100 at 14 days after application
# [28] = crop damage, pre-emerge, rate 250 g ai/ha, phytotoxicity rating 0-100 at 14 days after application
# [29] = 63 g ai/ha, phytotoxicity rating 0-100, 14 days after application
# [30] = 250 g ai/ha, phytotoxicity rating 0-100, 14 days after application
# [31] = 63 g ai/ha, crop damage rating 0-100, 14 days after application
# [32] = 250 g ai/ha, crop damage rating 0-100, 14 days after application
compound,measurement,setting,value
Cc1cccc(C)c1OC(=O)Nc1c(C)c(Cl)cc(F)c1-n1c(=O)cc(C(F)(F)F)n(C)c1=O [4-55],phytotoxicity rating CHEAL,[1]; 63 g ai/ha,50
same,phytotoxicity rating CHEAL,[1]; 250 g ai/ha,90
same,phytotoxicity rating ABUTH,[2]; 63 g ai/ha,100
same,phytotoxicity rating ABUTH,[2]; 250 g ai/ha,100
same,phytotoxicity rating DIGSA,[3]; 63 g ai/ha,0
same,phytotoxicity rating DIGSA,[3]; 250 g ai/ha,10
same,phytotoxicity rating IPOHE,[4]; 63 g ai/ha,40
same,phytotoxicity rating IPOHE,[4]; 250 g ai/ha,85
same,phytotoxicity rating AMARE,[5]; [23],50
same,phytotoxicity rating AMARE,[5]; [24],80
same,phytotoxicity rating SORHA,[6]; 63 g ai/ha,0
same,phytotoxicity rating SORHA,[6]; 250 g ai/ha,10
same,phytotoxicity rating CASOB,[7]; 63 g ai/ha,20
same,phytotoxicity rating CASOB,[7]; 250 g ai/ha,40
same,phytotoxicity rating SETVI,[8]; 63 g ai/ha,10
same,phytotoxicity rating SETVI,[8]; 250 g ai/ha,40
same,phytotoxicity rating ECHCG,[9]; 63 g ai/ha,0
same,phytotoxicity rating ECHCG,[9]; 250 g ai/ha,20
same,Pre-emerge Herbicidal Activity CHEAL,[10]; [25],90
same,Pre-emerge Herbicidal Activity CHEAL,[10]; [26],100
same,Pre-emerge Herbicidal Activity ABUTH,[11]; [25],80
same,Pre-emerge Herbicidal Activity ABUTH,[11]; [26],100
same,Pre-emerge Herbicidal Activity DIGSA,[12]; [25],0
same,Pre-emerge Herbicidal Activity DIGSA,[12]; [26],70
same,Pre-emerge Herbicidal Activity IPOHE,[13]; [25],20
same,Pre-emerge Herbicidal Activity IPOHE,[13]; [26],70
same,Pre-emerge Herbicidal Activity SORHA,[14]; [25],0
same,Pre-emerge Herbicidal Activity SORHA,[14]; [26],60
same,Pre-emerge Herbicidal Activity CASOB,[15]; [25],0
same,Pre-emerge Herbicidal Activity CASOB,[15]; [26],30
same,Pre-emerge Herbicidal Activity SETVI,[16]; [25],40
same,Pre-emerge Herbicidal Activity SETVI,[16]; [26],90
same,Pre-emerge Herbicidal Activity ECHCG,[17]; [25],0
same,Pre-emerge Herbicidal Activity ECHCG,[17]; [26],30
same,Pre-emerge Herbicidal Activity AMARE,[18]; [25],30
same,Pre-emerge Herbicidal Activity AMARE,[18]; [26],90
same,phytotoxicity rating CORN (crop damage),[19]; 63 g ai/ha,10
same,phytotoxicity rating CORN (crop damage),[19]; 250 g ai/ha,5
same,phytotoxicity rating RICE (crop damage),[20]; 63 g ai/ha,0
same,phytotoxicity rating RICE (crop damage),[20]; 250 g ai/ha,35
same,Pre-emerge Herbicidal Activity CORN,[21]; [27],0
same,Pre-emerge Herbicidal Activity CORN,[21]; [28],30
same,Pre-emerge Herbicidal Activity RICE,[22]; [27],0
same,Pre-emerge Herbicidal Activity RICE,[22]; [28],60
Cc1c(Cl)cc(F)c(-n2c(=O)cc(C(F)(F)F)n(C)c2=O)c1NC(=O)OCc1ccccc1Cl [4-54],phytotoxicity rating CHEAL,[1]; 63 g ai/ha,100
same,phytotoxicity rating CHEAL,[1]; 250 g ai/ha,100
same,phytotoxicity rating ABUTH,[2]; 63 g ai/ha,100
same,phytotoxicity rating ABUTH,[2]; 250 g ai/ha,100
same,phytotoxicity rating DIGSA,[3]; 63 g ai/ha,30
same,phytotoxicity rating DIGSA,[3]; 250 g ai/ha,60
same,phytotoxicity rating IPOHE,[4]; 63 g ai/ha,100
same,phytotoxicity rating IPOHE,[4]; 250 g ai/ha,100
same,phytotoxicity rating AMARE,[5]; [23],100
same,phytotoxicity rating AMARE,[5]; [24],100
same,phytotoxicity rating SORHA,[6]; 63 g ai/ha,40
same,phytotoxicity rating SORHA,[6]; 250 g ai/ha,70
same,phytotoxicity rating CASOB,[7]; 63 g ai/ha,90
same,phytotoxicity rating CASOB,[7]; 250 g ai/ha,100
same,phytotoxicity rating SETVI,[8]; 63 g ai/ha,80
same,phytotoxicity rating SETVI,[8]; 250 g ai/ha,90
same,phytotoxicity rating ECHCG,[9]; 63 g ai/ha,70
same,phytotoxicity rating ECHCG,[9]; 250 g ai/ha,80
same,Pre-emerge Herbicidal Activity CHEAL,[10]; [29],90
same,Pre-emerge Herbicidal Activity CHEAL,[10]; [30],100
same,Pre-emerge Herbicidal Activity ABUTH,[11]; [29],100
same,Pre-emerge Herbicidal Activity ABUTH,[11]; [30],90
same,Pre-emerge Herbicidal Activity DIGSA,[12]; [29],60
same,Pre-emerge Herbicidal Activity DIGSA,[12]; [30],100
same,Pre-emerge Herbicidal Activity IPOHE,[13]; [29],30
same,Pre-emerge Herbicidal Activity IPOHE,[13]; [30],70
same,Pre-emerge Herbicidal Activity SORHA,[14]; [29],30
same,Pre-emerge Herbicidal Activity SORHA,[14]; [30],80
same,Pre-emerge Herbicidal Activity CASOB,[15]; [29],30
same,Pre-emerge Herbicidal Activity CASOB,[15]; [30],80
same,Pre-emerge Herbicidal Activity SETVI,[16]; [29],90
same,Pre-emerge Herbicidal Activity SETVI,[16]; [30],100
same,Pre-emerge Herbicidal Activity ECHCG,[17]; [29],50
same,Pre-emerge Herbicidal Activity ECHCG,[17]; [30],85
same,Pre-emerge Herbicidal Activity AMARE,[18]; [29],100
same,Pre-emerge Herbicidal Activity AMARE,[18]; [30],100
same,phytotoxicity rating CORN (crop damage),[19]; 63 g ai/ha,40
same,phytotoxicity rating CORN (crop damage),[19]; 250 g ai/ha,75
same,phytotoxicity rating RICE (crop damage),[20]; 63 g ai/ha,90
same,phytotoxicity rating RICE (crop damage),[20]; 250 g ai/ha,100
same,Pre-emerge Herbicidal Activity CORN,[21]; [31],0
same,Pre-emerge Herbicidal Activity CORN,[21]; [32],5
same,Pre-emerge Herbicidal Activity RICE,[22]; [31],10
same,Pre-emerge Herbicidal Activity RICE,[22]; [32],60
